“And” between values parts separate entries of the source, which are not always exact repeats. Equal entries are not always repeated.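 Cells were grown in 96-well plates and exposed to each compound for 48 hours at five concentrations; endpoints were interpolated linearly between bracketing concentrations, or set to the highest concentration if not reached. GI50: concentration for 50% inhibition of growth. At the TGI there is no net growth.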
What was measured:
Assay in all cases: inhibition of tumour cell growth, NCI panel, 48 h
786-0 renal = test system: 786-0 renal
A498 renal = test system: A498 renal
A549 NSCLC = test system: A549 NSCLC
ACHN renal = test system: ACHN renal
BT-549 breast = test system: BT-549 breast
CCRF-CEM leukemia = test system: CCRF-CEM leukemia
COLO 205 colon = test system: COLO 205 colon
DU-145 prostate = test system: DU-145 prostate
EKVX NSCLC = test system: EKVX NSCLC
HCT-116 colon = test system: HCT-116 colon
HCT-15 colon = test system: HCT-15 colon
HL-60(TB) leukemia = test system: HL-60(TB) leukemia
HOP-62 NSCLC = test system: HOP-62 NSCLC
HOP-92 NSCLC = test system: HOP-92 NSCLC
HS 578T breast = test system: HS 578T breast
HT29 colon = test system: HT29 colon
IGROV1 ovarian = test system: IGROV1 ovarian
K-562 leukemia = test system: K-562 leukemia
LOX IMVI melanoma = test system: LOX IMVI melanoma
M14 melanoma = test system: M14 melanoma
MALME-3M melanoma = test system: MALME-3M melanoma
MCF7 breast = test system: MCF7 breast
MDA-MB-231 breast = test system: MDA-MB-231 breast
MDA-MB-435 = test system: MDA-MB-435
MDA-N = test system: MDA-N
MOLT-4 leukemia = test system: MOLT-4 leukemia
NCI-H226 lung = test system: NCI-H226 lung
NCI-H23 lung = test system: NCI-H23 lung
NCI-H522 lung = test system: NCI-H522 lung
NCI/ADR-RES ovarian = test system: NCI/ADR-RES ovarian
OVCAR-3 ovarian = test system: OVCAR-3 ovarian
OVCAR-4 ovarian = test system: OVCAR-4 ovarian
OVCAR-5 ovarian = test system: OVCAR-5 ovarian
OVCAR-8 ovarian = test system: OVCAR-8 ovarian
PC-3 prostate = test system: PC-3 prostate
RPMI-8226 leukemia = test system: RPMI-8226 leukemia
RXF 393 renal = test system: RXF 393 renal
SF-268 CNS = test system: SF-268 CNS
SF-295 CNS = test system: SF-295 CNS
SF-539 CNS = test system: SF-539 CNS
SK-MEL-2 melanoma = test system: SK-MEL-2 melanoma
SK-MEL-28 melanoma = test system: SK-MEL-28 melanoma
SK-MEL-5 melanoma = test system: SK-MEL-5 melanoma
SK-OV-3 ovarian = test system: SK-OV-3 ovarian
SN12C renal = test system: SN12C renal
SNB-19 CNS = test system: SNB-19 CNS
SNB-75 CNS = test system: SNB-75 CNS
SR leukemia = test system: SR leukemia
T-47D breast = test system: T-47D breast
TK-10 renal = test system: TK-10 renal
U251 CNS = test system: U251 CNS
UACC-257 melanoma = test system: UACC-257 melanoma
UACC-62 melanoma = test system: UACC-62 melanoma
UO-31 renal = test system: UO-31 renal
CAKI-1 renal = test system: CAKI-1 renal
HCC-2998 colon = test system: HCC-2998 colon
KM12 colon = test system: KM12 colon
NCI-H460 lung = test system: NCI-H460 lung
SW-620 colon = test system: SW-620 colon

Question: Which results are given for `CN(C)C=Nc1ccc2c3c(cccc13)-c1ccccc1-2`?
Answer: TGI (786-0 renal): 26 µM; TGI (A498 renal): 21.7 µM; TGI (A549 NSCLC): 23.7 µM; TGI (ACHN renal): 31.6 µM; TGI (BT-549 breast): 32 µM; TGI (CCRF-CEM leukemia): 17.2 µM; TGI (COLO 205 colon): 30.9 µM; TGI (DU-145 prostate): 25.7 µM; TGI (EKVX NSCLC): 22.4 µM; TGI (HCT-116 colon): 28.7 µM; TGI (HCT-15 colon): 24.1 µM; TGI (HL-60(TB) leukemia): 23.2 µM; TGI (HOP-62 NSCLC): 29.5 µM; TGI (HOP-92 NSCLC): 24.9 µM; TGI (HS 578T breast): 24.9 µM; TGI (HT29 colon): 21.6 µM; TGI (IGROV1 ovarian): 28.8 µM; TGI (K-562 leukemia): 22.1 µM; TGI (LOX IMVI melanoma): 28.3 µM; TGI (M14 melanoma): 22.1 µM; TGI (MALME-3M melanoma): 34.6 µM; TGI (MCF7 breast): 30.7 µM; TGI (MDA-MB-231 breast): 28.2 µM; TGI (MDA-MB-435): 28.3 µM; TGI (MDA-N): 27.6 µM; TGI (MOLT-4 leukemia): 24.8 µM; TGI (NCI-H226 lung): 22.8 µM; TGI (NCI-H23 lung): 32.9 µM; TGI (NCI-H522 lung): 18.8 µM; TGI (NCI/ADR-RES ovarian): 31.4 µM; TGI (OVCAR-3 ovarian): 28.9 µM; TGI (OVCAR-4 ovarian): 31.6 µM; TGI (OVCAR-5 ovarian): 23.1 µM; TGI (OVCAR-8 ovarian): 29.8 µM; TGI (PC-3 prostate): 26.3 µM; TGI (RPMI-8226 leukemia): 38.9 µM; TGI (RXF 393 renal): 21 µM; TGI (SF-268 CNS): 26.8 µM; TGI (SF-295 CNS): 27.9 µM; TGI (SF-539 CNS): 24.5 µM; TGI (SK-MEL-2 melanoma): 31.1 µM; TGI (SK-MEL-28 melanoma): 31.9 µM; TGI (SK-MEL-5 melanoma): 28.1 µM; TGI (SK-OV-3 ovarian): 26.5 µM; TGI (SN12C renal): 25.1 µM; TGI (SNB-19 CNS): 27.4 µM; TGI (SNB-75 CNS): 28.9 µM; TGI (SR leukemia): 26.3 µM; TGI (T-47D breast): 31.3 µM; TGI (TK-10 renal): 26.7 µM; TGI (U251 CNS): 26.2 µM; TGI (UACC-257 melanoma): 31.9 µM; TGI (UACC-62 melanoma): 38.8 µM; TGI (UO-31 renal): 19.6 µM

Question: For `CC(=O)c1c(-c2ccc(Cl)cc2)c(C#N)c(=S)n(C2OC(CO)C(O)C(O)C2O)c1-c1ccccc1` (stereo not drawn), which GI50 (786-0 renal) is on record?
Answer: 48.8 µM and > 100 µM

Question: What about the TGI (786-0 renal) of the same molecule?
Answer: > 100 µM

Question: What about the GI50 (A498 renal) of the same molecule?
Answer: > 100 µM and 49.7 µM

Question: What about the TGI (A498 renal) of the same molecule?
Answer: > 100 µM

Question: What about the GI50 (A549 NSCLC) of the same molecule?
Answer: 46.7 µM and > 100 µM

Question: And the TGI (A549 NSCLC)?
Answer: > 100 µM

Question: What about the TGI (ACHN renal) of the same molecule?
Answer: > 100 µM

Question: And the TGI (BT-549 breast)?
Answer: > 100 µM

Question: And the TGI (CAKI-1 renal)?
Answer: > 100 µM

Question: What about the GI50 (CCRF-CEM leukemia) of the same molecule?
Answer: 13.1 µM and 55.4 µM

Question: What about the TGI (CCRF-CEM leukemia) of the same molecule?
Answer: 99.5 µM and > 100 µM

Question: What about the GI50 (COLO 205 colon) of the same molecule?
Answer: 47.3 µM and > 100 µM

Question: And the TGI (COLO 205 colon)?
Answer: > 100 µM

Question: And the TGI (DU-145 prostate)?
Answer: > 100 µM

Question: What about the GI50 (EKVX NSCLC) of the same molecule?
Answer: 99.7 µM and 22.2 µM

Question: And the TGI (EKVX NSCLC)?
Answer: > 100 µM

Question: And the TGI (HCC-2998 colon)?
Answer: > 100 µM

Question: And the GI50 (HCT-116 colon)?
Answer: 17.4 µM and > 100 µM

Question: And the TGI (HCT-116 colon)?
Answer: > 100 µM

Question: What about the TGI (HCT-15 colon) of the same molecule?
Answer: > 100 µM

Question: And the GI50 (HL-60(TB) leukemia)?
Answer: 30.9 µM and 62.2 µM

Question: What about the TGI (HL-60(TB) leukemia) of the same molecule?
Answer: > 100 µM

Question: What about the GI50 (HOP-62 NSCLC) of the same molecule?
Answer: 39.8 µM and > 100 µM

Question: What about the TGI (HOP-62 NSCLC) of the same molecule?
Answer: > 100 µM

Question: What about the TGI (HOP-92 NSCLC) of the same molecule?
Answer: > 100 µM and 74.1 µM

Question: And the TGI (HS 578T breast)?
Answer: > 100 µM

Question: And the TGI (HT29 colon)?
Answer: > 100 µM

Question: And the TGI (IGROV1 ovarian)?
Answer: > 100 µM

Question: And the GI50 (K-562 leukemia)?
Answer: 26 µM and > 100 µM

Question: And the TGI (K-562 leukemia)?
Answer: > 100 µM

Question: And the TGI (KM12 colon)?
Answer: > 100 µM

Question: And the GI50 (LOX IMVI melanoma)?
Answer: 15.9 µM and > 100 µM

Question: And the TGI (LOX IMVI melanoma)?
Answer: > 100 µM

Question: And the TGI (M14 melanoma)?
Answer: > 100 µM

Question: And the TGI (MALME-3M melanoma)?
Answer: > 100 µM

Question: And the TGI (MCF7 breast)?
Answer: > 100 µM

Question: And the GI50 (MDA-MB-231 breast)?
Answer: > 22.6 µM and 76.3 µM

Question: What about the TGI (MDA-MB-231 breast) of the same molecule?
Answer: > 100 µM

Question: What about the TGI (MDA-MB-435) of the same molecule?
Answer: > 100 µM

Question: What about the TGI (MDA-N) of the same molecule?
Answer: > 100 µM

Question: And the TGI (MOLT-4 leukemia)?
Answer: 29.2 µM and > 100 µM

Question: And the TGI (NCI-H226 lung)?
Answer: > 100 µM

Question: What about the TGI (NCI-H23 lung) of the same molecule?
Answer: > 100 µM

Question: What about the TGI (NCI-H460 lung) of the same molecule?
Answer: > 100 µM

Question: What about the TGI (NCI-H522 lung) of the same molecule?
Answer: > 100 µM

Question: What about the TGI (NCI/ADR-RES ovarian) of the same molecule?
Answer: > 100 µM

Question: And the TGI (OVCAR-3 ovarian)?
Answer: > 100 µM

Question: And the GI50 (OVCAR-4 ovarian)?
Answer: > 86.4 µM and 14.7 µM

Question: What about the TGI (OVCAR-4 ovarian) of the same molecule?
Answer: > 100 µM

Question: And the GI50 (OVCAR-5 ovarian)?
Answer: > 100 µM

Question: What about the TGI (OVCAR-5 ovarian) of the same molecule?
Answer: > 100 µM

Question: And the TGI (OVCAR-8 ovarian)?
Answer: > 100 µM

Question: What about the GI50 (PC-3 prostate) of the same molecule?
Answer: 7.97 µM and 58.6 µM

Question: And the TGI (PC-3 prostate)?
Answer: > 100 µM

Question: And the TGI (RPMI-8226 leukemia)?
Answer: > 100 µM

Question: What about the TGI (RXF 393 renal) of the same molecule?
Answer: > 100 µM

Question: What about the TGI (SF-268 CNS) of the same molecule?
Answer: > 100 µM

Question: What about the TGI (SF-295 CNS) of the same molecule?
Answer: > 100 µM

Question: What about the GI50 (SF-539 CNS) of the same molecule?
Answer: > 100 µM

Question: What about the TGI (SF-539 CNS) of the same molecule?
Answer: > 100 µM

Question: What about the GI50 (SK-MEL-2 melanoma) of the same molecule?
Answer: > 84.5 µM and 35 µM

Question: What about the TGI (SK-MEL-2 melanoma) of the same molecule?
Answer: > 100 µM

Question: What about the TGI (SK-MEL-28 melanoma) of the same molecule?
Answer: > 100 µM

Question: What about the GI50 (SK-MEL-5 melanoma) of the same molecule?
Answer: 31.8 µM and > 100 µM

Question: And the TGI (SK-MEL-5 melanoma)?
Answer: > 100 µM

Question: And the TGI (SK-OV-3 ovarian)?
Answer: > 100 µM

Question: And the TGI (SN12C renal)?
Answer: > 100 µM

Question: What about the GI50 (SNB-19 CNS) of the same molecule?
Answer: 34.8 µM and > 100 µM

Question: And the TGI (SNB-19 CNS)?
Answer: > 100 µM

Question: And the TGI (SNB-75 CNS)?
Answer: > 100 µM

Question: What about the TGI (SR leukemia) of the same molecule?
Answer: 61.8 µM and > 100 µM

Question: What about the TGI (SW-620 colon) of the same molecule?
Answer: > 100 µM

Question: And the TGI (T-47D breast)?
Answer: > 100 µM

Question: And the TGI (TK-10 renal)?
Answer: > 100 µM

Question: And the GI50 (U251 CNS)?
Answer: 42.8 µM and > 100 µM

Question: And the TGI (U251 CNS)?
Answer: > 100 µM

Question: What about the TGI (UACC-257 melanoma) of the same molecule?
Answer: > 100 µM

Question: And the GI50 (UACC-62 melanoma)?
Answer: 4.85 µM and 21.9 µM

Question: What about the TGI (UACC-62 melanoma) of the same molecule?
Answer: > 100 µM

Reference: PubChem BioAssay (NCI)
